# According to patent US8957087B2, “Heterocyclic substituted acardite derivate and application thereof” (Jiangsu Provincial Institute of Materia Medica Co., Ltd., priority 2009, dated 2015):
# Where two headings read alike, the source gives them in different places. Marks after values point to notes of the source that are not given here.
# How the values were obtained:
# mice S180 sarcoma [1] = assay: Experimental therapeutic action on S180 sarcoma mice; settings: for Tumor weight x ± SD: day 10; for Tumor growth inhibition rate (%): mice S180 sarcoma, 60 mg/kg orally for 9 days
# Experimental: (§1) Experimental therapeutic action of the compound in the present invention on S180 sarcoma mice
# (§2) 18-25 g female ICR mice and well grown 7-11 day old mice sarcoma S180 tumor seeds were selected, and the seeds were inoculated into the subcutaneous at the right axillary. After inoculated 24 hours, these mice were randomly divided into cages and orally administrated 60 mg/kg for 9 days. On 10 day, the animals were killed and weighed, and the tumor weights were weighed to calculate average tumor weight in each group, followed by calculating the tumor inhibition rate according to the following formula and T test.
# lung cancer cell A549 = assay: Effects on the adhesive ability of lung cancer cell A549; type: cell-based, human; settings: Final concentration 1 x 1.0*10^(−5) mol/L
# Outline: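 A549 cells in 1640 medium with 10% FBS tested for adhesion to gelatin versus poly-lysine (PLL), with CCK8 used as read-out. Inhibition rate derived from the gelatin/PLL adhesion OD ratio of dosed cells relative to the undosed cell group.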
# [2] = test system: human umbilical vein endothelial cell HUVEC; assay: Growth of human umbilical vein endothelial cell HUVEC by CCK8 method; type: cell-based; settings: Final concentration 1 x 1.0*10^(−5) mol/L
# Outline: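 HUVEC cells were grown in 1640 medium with 10% FBS, and growth was measured by the CCK8 method. OD values of drug and control wells were corrected by subtracting the blank-well OD.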
# mice S180 sarcoma [3] = settings: mouse, in vivo, 60 mg/kg
# Experimental: as §1, §2
# [4] = test system: renal carcinoma cell line GCR-1 transplanted tumor; type: in vivo, BALB/cA nude mice; settings: 60 mg/kg, 6 times every week for 3 weeks; for Relative tumor reproduction rate T/C (%) on human renal carcinoma GCR-1 cell transplanted tumor model in nude mice: BALB/cA nude mice, Sorafenib oral 60 mg/kg
# Outline: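 Female BALB/cA nude mice (18–22 g) bearing GCR-1 renal carcinoma xenografts, 6 per treated group, 12 saline controls. Drug given at 60 mg/kg, 6 times weekly for 3 weeks, then one week of observation; tumor inhibition rate reported.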
# [5] = test system: human high-metastic lung cancer cell 95D; assay: Inhibition of human high-metastic lung cancer cell 95D migration (Boyden Chamber Transwell); type: cell-based; settings: Final concentration 1 x 1.0*10^(−5) mol/L
# Outline: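 Boyden Transwell migration (8 μm pores) of 95D cells, RPMI-1640 with 10% FBS versus serum-free medium; inhibition rate calculated.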
# [6] = test system: human lung cancer A549 transplantation tumor; type: in vivo; settings: 60 mg/kg, 6 times every week for 3 weeks; for Relative tumor reproduction rate T/C (%) on human lung cancer A549 transplantation tumor in nude mice: BALB/cA nude mice, Sorafenib oral 60 mg/kg
# Outline: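 Female BALB/cA nude mice, 35-40 days old, bearing A549 human lung cancer transplants; 6 per treatment group, 12 saline controls. Compound given at 60 mg/kg, 6 times weekly for 3 weeks, then observed one week.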
# [7] = test system: human lung cancer cell strain A549; assay: MTT assay, inhibition of growth of human lung cancer cell strain A549; type: cell-based
# Outline: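 A549 cells grown in F12 with 10% FBS; growth read by MTT, inhibition rate from blank-corrected OD of drug wells versus control wells.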
# [8] = test system: human liver cancer cell bel-7402 transplantation tumor; type: in vivo; settings: 60 mg/kg, 6 times every week for 3 weeks; for Relative tumor reproduction rate T/C (%) on human liver cancer cell bel-7402 transplantation tumor model in nude mice: BALB/cA nude mice, Sorafenib oral 60 mg/kg
# Outline: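 Female BALB/cA nude mice (35–40 days, 18–22 g) bearing Bel-7402 xenografts; 6 mice per treated group, 12 in saline controls. Compound dosed at 60 mg/kg, 6 times weekly for 3 weeks, followed by one week of observation; tumor inhibition rate scored against controls.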
# Raf-1(truncated) = assay: Raf-1 inhibitor screening by chemoluminescence method; type: biochemical; settings: Final concentration 1 x 1.0*10^−5 mol/ml
# Excerpt: 1. Inhibitory activity of the compound of the present invention on raf kinase
# Raf-1 inhibitor screening by chemoluminescence method
# Westernblot electrophoresis apparatus Rotaryshaker
# Raf-1(truncated), Magnesium/ATP Cocktail, MEK1 unactive
# [9] = test system: Human colon cancer HT-29 transplantable tumor; assay: Human colon cancer HT-29 transplantable tumor in nude mice; settings: for Relative tumor reproduction rate T/C (%): HT-29 in nude mice; for Relative tumor reproduction rate T/C (%) / RTV: 60 mg/kg ig 9 times; for RTV: relative tumor volume; for TV d0: tumor volume d0, 60 mg/kg; for TV d13: tumor volume d13, 60 mg/kg ig 9 times; for Weight (g) d0: nude mouse body weight d0, 60 mg/kg; for Weight (g) d13: nude mouse body weight d13, 60 mg/kg ig 9 times
# [10] = test system: human umbilical vein endothelial cell HUVEC; assay: Lumen formation ability of HUVEC (Matrigel method); type: cell-based; settings: Final concentration 1 x 1.0*10^(−5) mol/L
# Outline: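 HUVEC at passage 3–5, cultured in M199 at 37° C under 5% CO2, were plated on Matrigel with compound. Spontaneous lumen formation was scored as an inhibition rate.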
# [11] = Final concentration 1 x 1.0*10^(−5) mol/L
Molecule,Tumor weight x ± SD (mice S180 sarcoma [1]; 60 mg/kg ig for 9 days) [g],Tumor growth inhibition rate (%) (mice S180 sarcoma [1]),"Inhibition rate, adhesion ability of human lung cancer cell A549 (lung cancer cell A549) [%]","Inhibition rate, growth of HUVEC cell [2] [%]",Relative tumor reproduction rate T/C (%) on human renal carcinoma GCR-1 cell transplanted tumor model in nude mice [4] [%],"Inhibition rate, 95D cell strain migration [5] [%]",Relative tumor reproduction rate T/C (%) on human lung cancer A549 transplantation tumor in nude mice [6] [%],"Inhibition rate, growth of human lung cancer cell A549 [7, 11] [%]",Relative tumor reproduction rate T/C (%) on human liver cancer cell bel-7402 transplantation tumor model in nude mice [8] [%],Inhibition rate % on raf kinase (Raf-1(truncated)) [%],RTV [9],TV d0 [9],TV d13 [9],"Inhibition rate, lumen formation ability of HUVEC [10] [%]","Inhibition rate, growth of human lung cancer cell A549 [7] [%]",Relative tumor reproduction rate T/C (%) [9] [%],also measured
CNC(=O)c1cc(Oc2ccc(NC(=O)Nc3ccc(Br)c(C(F)(F)F)c3)cc2)c2cc(OC)ccc2n1 [Compound 3],0.75 ± 0.36,53.4,79.66,27.67,31.3,96.64,37.2,69.67,30.1,56.3,2.40 ± 0.67,133 ± 18,322 ± 129,76.61,–,–,Weight (g) Start (mice S180 sarcoma [3]): 18.0 ± 1.1 g; Relative tumor reproduction rate T/C (%) ([9]; 60 mg/kg): 47.34%
CCCNC(=O)c1cc(Oc2ccc(NC(=O)Nc3ccc(Cl)c(OC)c3)c(F)c2)c2ccc(C(F)(F)F)cc2n1 [Compound 37],–,24.1,71.74,19.65,32.3,79.25,38.3,–,36.3,81.5,–,–,–,71.72,71.65,39.5,–
CCCNC(=O)c1cc(Oc2ccc(NC(=O)Nc3ccc(Cl)c(OC)c3)c(C(F)(F)F)c2)c2ccc(C(F)(F)F)cc2n1 [Compound 38],–,59.2,75.53,14.56,20.5,80.53,36.5,–,31.5,88.1,–,–,–,65.55,74.56,41.2,–
"CNC(=O)c1cc(Oc2ccc(NC(=O)Nc3ccc(Cl)c(C(F)(F)F)c3)cc2)ccn1 [Sorafenib, reference compound]",0.71 ± 0.30,–,72.66,22.61,–,62.32,–,–,–,85.7,2.36 ± 0.57,133 ± 33,308 ± 86,55.60,54.60,–,"Tumor growth inhibition rate (%) (mice S180 sarcoma [1]; 60 mg/kg): 55.9%; Tumor growth inhibition rate (%) (mice S180 sarcoma [1]; listed as Sora, 60 mg/kg): 55.9%; Mortality of the animals [4]: no mortality; Mortality of the animals [6]: no mortality; Mortality of the animals [8]: no mortality; Weight (g) d0 [9]: 19.9 ± 1.1 g; Weight (g) d13 [9]: 20.4 ± 1.4 g"
N-(4-chloro-3-(trifluoromethyl)phenyl)-N′-(4-(2-(N-methylaminoformoxyl)-4-(6-methoxyquinolinyl)oxy))phenyl)urea [Compound 1],0.99 ± 0.20,38.5,60.22,9.20,30.5,80.21,38.7,50.20,33.7,75.0,2.81 ± 1.05,128 ± 34,359 ± 108,72.22,–,–,"Weight (g) Start (mice S180 sarcoma [1]; mouse body weight at start, 60 mg/kg ig): 18.7 ± 1.9 g; Weight (g) Final (mice S180 sarcoma [1]; mouse body weight final, 60 mg/kg ig for 9 days): 22.3 ± 1.3 g; Relative tumor reproduction rate T/C (%) ([9]; 60 mg/kg): 55.42%; Weight (g) d0 [9]: 19.5 ± 1.0 g; Weight (g) d13 [9]: 20.5 ± 1.1 g"
N-(4-chloro-3-(trifluoromethyl)phenyl)-N′-(4-(2-(N-methylaminoformoxyl)-4-(7 fluoroquinazolinyl)oxy)phenyl)urea [Compound 4],–,50.1,89.71,5.12,9.6,96.38,12.3,91.12,15.3,82.2,–,–,–,86.77,–,33.15,–
N-(4-chloro-3-(trifluoromethyl)phenyl)-N′-(4-(2-(N-methylaminoformoxyl)-4-(7-amino-isoquinolyl)oxy)phenyl)urea [Compound 10],–,55.2,64.57,14.50,27.1,61.43,30.1,74.50,28.1,3.5,–,–,–,50.34,–,78.9,–
N-(4-fluoro-3-(trifluoromethyl)phenyl)-N′-(4-(4-(2-methyl-pyrryl)oxy)phenyl)urea [Compound 29],–,14.2,91.40,21.40,12.8,61.44,14.7,–,16.2,85.3,–,–,–,86.43,86.42,78.3,–
